Experimental data as given in patent US5128346A, “Derivatives of D-glutamic acid and D-aspartic acid” (priority 1990, dated 1992).
Structures can show the parent of a compound that is named as a salt. Where two headings read alike, the source gives them in different places.

Tests used:
Type-A CCK receptor = target: T1, Type-A CCK receptor (Cavia porcellus, UniProt Q63931); assay: Radioligand binding, [^125 I]-BH-CCK8, Type-A CCK receptor (pancreatic membranes); parameters: species or system guinea pig
T1 construct: cortex and pancreas were removed and rinsed with ice cold saline; from tissue; host or cells: guinea pig pancreas, membranes
T1 sequence (Q63931 1-430): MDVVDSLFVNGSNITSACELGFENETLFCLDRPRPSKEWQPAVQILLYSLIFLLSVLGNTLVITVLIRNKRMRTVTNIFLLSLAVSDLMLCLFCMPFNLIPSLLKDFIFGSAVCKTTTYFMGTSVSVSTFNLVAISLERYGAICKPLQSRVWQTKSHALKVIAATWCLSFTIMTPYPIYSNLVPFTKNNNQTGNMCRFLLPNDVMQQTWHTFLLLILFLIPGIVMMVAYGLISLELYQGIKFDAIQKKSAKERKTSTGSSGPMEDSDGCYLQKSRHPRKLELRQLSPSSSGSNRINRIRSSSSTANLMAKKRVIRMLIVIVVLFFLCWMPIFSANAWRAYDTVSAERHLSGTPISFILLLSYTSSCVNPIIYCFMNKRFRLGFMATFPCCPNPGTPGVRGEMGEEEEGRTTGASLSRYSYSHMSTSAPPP
Description: (§1) CCK8 [Asp-Tyr(SO3 H)-Met-Gly-Trp-Met-Asp-Phe-NH2 ] was purchased from Beckman Instruments (Palo Alto, Ca/) and Peptide International (Louisville, Ky.). Chymostatin, L-Try-Gly, puromycin, bestatin, EGTA, HEPES and BSA were purchased from Sigma Chemical Co. (St. Louis, Mo.). [^125 I]BH-CCK8 (specific activity, 2200 Ci/mmol) and Aquasol 2 scintillation cocktail were obtained from New England Nuclear (Boston, Ma.). Male guinea pigs, 250 to 325 g, were obtained from Scientific Small Animal Laboratory and Farm (Arlington Heights, Ill.). Collagenase, 300 units per mg, was purchased from Worthington (Frehold, N.J.)
(§2) 1. Guinea Pig Cerebral Cortical and Pancreatic Membrane Preparations
(§3) Cortical and pancreatic membrances were prepared as described (Lin and Miller; J. Pharmacol. Exp. Ther. 232, 775-780, 1985). In brief, cortex and pancreas were removed and rinsed with ice cold saline. Visible fat and connective tissues were removed from the pancreas. Tissues were weighed and homogenized separately in approximately 25 mL of ice-cold 50 mM Tris-HCl buffer, pH 7.4 at 4° C., with a Brinkman Polytron for 30 sec, setting 7. The homogenates were centrifuged for 10 min at 1075×g and pellets were discarded. The supernatants were saved and centrifuged at 38,730×g for 20 min. The resultant pellets were rehomogenized in 25 mL of 50 mM Tris-HCl buffer with a Teflon-glass homogenizer, 5 up and down strokes. The homogenates were centrifuged again at 38,730×g for 20 min. Pellets were then resuspended in 20 mM HEPES, containing 1 mM EGTA., 118 mM NaCl, 5 mM MgCl2, 100 microM bestatin, 3 microM phosphoramidon, pH 7.4 at 22° C., with a Teflon-glass homogenizer, 15 up and down strokes. Resuspension volume for the cortex was 15-18 mL per gm of original wet weight and 60 mL per gm for the pancreas.
(§4) ^125 I]Bolton-Hunter CCK8, and test compounds were diluted with HEPES-EGTA-salt buffer (see above) containing 0.5% bovine serum albumin (BSA). To 1 mL Skatron polystyrene tubes were added 25 microliters of test compounds, 25 miroliters of [^125 I]BH-CCK8, and 200 microliters of membrane suspension. The final BSA concentration was 0.1%. The cortical tissues were incubated at 30° C. for 150 min and pancreatic tissues were incubated at 37° C. for 30 min. Incubations were terminated by filtration using Skatron Cell Harvester and SS32 microfiber filter mats. The specific binding of [^125 I]BH-CCK8, defined as the difference between binding in the absence and presence of 1 microM CCK8, was 85 90% of pancreas. IC50 's were determined from the Hill analysis.

guinea pig acini = assay: Inhibition of CCK8-stimulated amylase release from acini; type: cell-based; conditions: Cavia porcellus, 0.5 h, CCK8 3×10^-10 M, 37° C., 30 min
Protocol: Protocol for Amylase This assay was performed using the modified protocol of Lin et al., J. Pharmacol. Exp. Ther. 236, 734, 1986. 1. Guinea Pig Acini Preparation Guinea pig acini were prepared by the method of Bruzzone et al. (Biochem. J. 226, 621-624, 1985) as follows. Pancreas was dissected out and connective tissues and blood vessels were removed. The pancreas was cut into small pieces (2mm) by a scissor and placed in a 15 mL conical plastic tube containing 2.5 mL of Krebs Ringer HEPES (KRH) buffer plus 400 units per mL of collagenase. The composition of the KRH buffer was: HEPES, 12.5 mM: NaCl, 118 mM; KCI, 4.8 mM; CaCl2, 1 mM; […]; MgSO4, 1.2 mM; NaHCO3, 5 mM; glucose, 10 mM, pH 7.4. The buffer was supplemented with MEM vitamins, 1% MEM amino acids and 0.001% aprotinin. The tube was shaken by hand until the suspension appeared homogeneous, usually 5 to 6 min. 5 mL of the KRH, without collagenase and with 0.1% BSA, were added and the tube was centrifuged at 50×g for 35 sec. The supernatant was discarded and 6 mL of the KRH were added to the cell pellet. […] This wash procedure was repeated once. The cell pellet from the last centrifugation step was then resuspended in 15 mL of KRH containing 0.1% BSA. The contents were filtered through a dual nylon mesh, size 275 and 75 micrometers. The filtrate, containing the acini, were centrifuged at 50×for 3 min. The acini were then resuspended in 5 mL of KRH-BSA buffer for 30 min at 37° C., under 100% O2, with a change of fresh buffer at 15 min. 2. Amylase Assay After the 30 min incubation time, the acini were resuspended in 100 volumes of KRH-BSA buffer, containing 3 microM phosphoramidon and 100 microM bestatin. […] The final assay volume was 500 microliters. Tubes were vortexed and placed in a 37° C. water bath, under 100% O2, for 30 min. Afterward, tubes were centrifuged at 10,000 g for 1 min. […] The results of this assay are […]

Type-B CCK receptor = target: T2, Type-B CCK receptor (Cavia porcellus, UniProt H0VZC5); assay: Radioligand binding, [^125 I]-BH-CCK8, Type-B CCK receptor (cerebral cortical membranes); parameters: species or system guinea pig
T2 construct: cortex and pancreas were removed and rinsed with ice cold saline; from tissue; host or cells: guinea pig cerebral cortex, membranes
T2 sequence (H0VZC5 1-426): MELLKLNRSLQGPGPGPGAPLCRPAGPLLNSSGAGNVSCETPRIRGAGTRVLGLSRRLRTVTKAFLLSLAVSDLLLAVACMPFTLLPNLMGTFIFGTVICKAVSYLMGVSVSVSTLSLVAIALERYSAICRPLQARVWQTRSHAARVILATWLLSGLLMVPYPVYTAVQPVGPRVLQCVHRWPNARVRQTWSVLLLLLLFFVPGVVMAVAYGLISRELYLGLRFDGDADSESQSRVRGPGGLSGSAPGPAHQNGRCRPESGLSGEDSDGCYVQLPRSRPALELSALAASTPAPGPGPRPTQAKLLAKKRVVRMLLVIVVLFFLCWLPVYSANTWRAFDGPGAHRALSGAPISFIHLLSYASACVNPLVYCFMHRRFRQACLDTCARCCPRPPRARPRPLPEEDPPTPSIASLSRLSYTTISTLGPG
Description: as §1, §2, §3
as §4, with “The specific binding of [^125 I]BH-CCK8, defined as the difference between binding in the absence and presence of 1 microM CCK8, was 85 90% of pancreas.” left out

CCK8 = assay: Inhibition of CCK induced gastric emptying (charcoal meal); type: in vivo; conditions: 100 mg/kg p.o., CCK8 80 micrograms/kg s.c.
Protocol: Inhibition Of CCK Induced Gastric Emptying
Three fasted mice were dosed (p.o.) with the test compound. CCK8 (80 micrograms/kg s.c.) was administered within 60 minutes and charcoal meal (0.1 mL of 10% suspension) was given orally 5 minutes later. The animals were sacrificed within an additional 5 minutes.
Gastric emptying, defined as the presence of charcoal within the intestine beyond the pyloric sphincter, is inhibited by CCK8. Gastric emptying observed in more than 1 or 3 mice (greater than 1) indicates antagonism of CCK8.

[1] = guinea pig pancreatic membranes, 37° C., 30 min, IC50 from Hill analysis

Row | SMILES | IC50 (Type-A CCK receptor) | IC50 (guinea pig acini) | IC50 (Type-A CCK receptor; [1]) | IC50 (Type-B CCK receptor) | Gastric emptying observed (mice out of three; more than 1 indicates antagonism of CCK8) (CCK8)
1 | CCCCCN(CCCCC)C(=O)[C@@H](CCC(=O)O)NC(=O)c1cc2ccccc2[nH]1 [Example 4, N-(2,-Indolylcarbonyl)-R-Glu-N^α,N^α -di-n-pentylamide] | 20 nM | 22 nM | – | – | –
2 | CCCCCN(CCCCC)C(=O)[C@H](CCC(=O)O)NC(=O)c1cc2ccccc2[nH]1 [Example 8, N-(2'-Indolylcarbonyl)-S-Glu-N^α,N^α -di-n-pentylamide] | – | 590 nM | 200 nM | – | –
3 | CCCCCN(CCCCC)C(=O)[C@@H](CCC(=O)O)NC(=O)c1c[nH]c2ccccc12 [Example 12, N-(3'-Indolylcarbonyl)-R-Glu-N^α,N^α -di-n-penylamide] | – | 830 nM | 260 nM | 3200 nM | –
4 | CCCCCN(CCCCC)C(=O)[C@@H](CCC(=O)O)NC(=O)c1cnc2ccccc2c1 [Example 15, N-(3'-Quinolylcarbonyl)-R-Glu-N^α,N^α -di-n-pentylamide] | 5.4 nM | 16 nM | – | 3500 nM | –
5 | CCCCCN(CCCCC)C(=O)[C@@H](CC(=O)O)NC(=O)c1cc2ccccc2[nH]1 [Example 19, N-(2'-Indolylcarbonyl)-R-Asp-N^α,N^α -di-n-pentylamide] | 27 nM | 55 nM | – | 2600 nM | –
6 | CCCCCN(CCCCC)C(=O)[C@@H](CCC(=O)OC)NC(=O)c1cc2ccccc2[nH]1 [Example 23, N-(2'-Indolylcarbonyl)-(γ-methyl ester)-R-Glu-di-n-pentylamide] | 98 nM | 1300 nM | – | 3600 nM | –
7 | O=C(O)CC[C@@H](NC(=O)c1cc2ccccc2[nH]1)C(=O)N(Cc1ccccc1)Cc1ccccc1 [Example 29, N-(2'-Indolylcarbonyl)-R-Glu-N^α,N^α -dibenzylamide] | 30 nM | 130 nM | – | 5100 nM | –
8 | CCCCCN(CCCCC)C(=O)[C@@H](CCC(=O)O)NC(=O)c1ccc2ncccc2c1 [Example 34, N-(6'-Quinolylcarbonyl)-R-Glu-N^α,N^α -d-n-pentylamide] | 30 nM | 53 nM | – | ~10000 nM | –
9 | O=C(O)CC[C@@H](NC(=O)c1cc2ccccc2[nH]1)C(=O)N(c1ccccc1)c1ccccc1 [Example 74, N-(2'-Indolylcarbonyl)-R-Glu-N^α,N^α -diphenylamide] | 210 nM | 1200 nM | – | 2000 nM | –
10 | CCCCCN(CCCCC)C(=O)[C@@H](CCC(=O)O)NC(=O)c1cnc2ccccc2c1 [Example 118, N-(3'-Quinolylcarbonyl)-R-Glu-N^α,N^α -di-n-pentylamideDicyclohexylamine salt] | – | – | – | – | three out of three
